# Laboratory results taken from patent publication EP4624457A1, “I[…] DERIVATIVES, I[…] NEURODEGENERATIVE DISEASES” (Centre National de la Recherche Scientifique, priority 2024, dated 2025).
# Biological target: T1, neuronal α3β2 nAChR subtype (Rattus norvegicus, UniProt P04757+P12390)
# T1 construct: expressed in transfected cells; host or cells: Xenopus laevis oocytes injected with mRNA
# Assay: Two-electrode voltage clamp electrophysiology on Xenopus laevis oocytes expressing the α3β2 nAChR
# Assay type: cell-based
# Settings: portimine 100 nM - 1 mM for 45 seconds; stated for the three nAChR subtypes tested
# Procedure: • Figure 1 represents the chemical structure of ingrilimine according to compound (Illa) formula. • Figure 2 represents the cytotoxic activity of ingrilimine. A2780 ovarian and HT29 colorectal carcinoma cells were grown in RPMI 1640 supplemented with 10% fetal calf serum (FCS) and 1% glutamine. U87-MG glioblastoma cells were grown in Dulbecco minimal essential medium containing 4.5 g/L glucose, 10% FCS and 1% glutamine at 37 °C in a humidified atmosphere containing 5% CO2. For IC50 determination, the cells were seeded in 96-well plates (3 × 10^3 cells/well) containing 90 µL of growth medium. After 24 h of culture, the cells were treated with ingrilimine at 10 different final concentrations. Cell viability was determined by luminescence after 72 h incubation. (a) Effect of ingrilimine on A2780 ovarian carcinoma cells. (b) Effect of ingrilimine on U87-MG glioblastoma cells. […] Sector Q normal cells that accumulated the JC-1 dye (fluorescence emission 590 nm). […] Changes in fluorescence emission were recorded by flow cytometry using the JC-1 mithocondrial membrane potential-dependent fluorescent dye. […] Phosphatidylcholine exposure in A2780 cell was quantified by flow cytometry using FITC-Annexin V. Dead or necrotic cells were detected using the vital dye propridium iodide. […]
# T1 sequence (P12390 25-500): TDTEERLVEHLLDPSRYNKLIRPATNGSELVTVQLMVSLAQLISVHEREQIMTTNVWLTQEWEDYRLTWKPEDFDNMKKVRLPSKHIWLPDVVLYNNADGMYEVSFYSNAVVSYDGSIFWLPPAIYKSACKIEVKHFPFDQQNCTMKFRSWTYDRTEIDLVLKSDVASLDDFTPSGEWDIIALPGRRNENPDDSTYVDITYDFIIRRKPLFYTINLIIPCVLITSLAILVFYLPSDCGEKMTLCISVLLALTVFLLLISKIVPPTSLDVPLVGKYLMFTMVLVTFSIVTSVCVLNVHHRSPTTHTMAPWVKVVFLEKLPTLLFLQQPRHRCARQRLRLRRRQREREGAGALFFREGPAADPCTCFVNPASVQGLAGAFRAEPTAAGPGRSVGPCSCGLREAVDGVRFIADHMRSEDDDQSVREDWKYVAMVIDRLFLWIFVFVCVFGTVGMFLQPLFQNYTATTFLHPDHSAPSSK
# T1 sequence (P04757 26-499): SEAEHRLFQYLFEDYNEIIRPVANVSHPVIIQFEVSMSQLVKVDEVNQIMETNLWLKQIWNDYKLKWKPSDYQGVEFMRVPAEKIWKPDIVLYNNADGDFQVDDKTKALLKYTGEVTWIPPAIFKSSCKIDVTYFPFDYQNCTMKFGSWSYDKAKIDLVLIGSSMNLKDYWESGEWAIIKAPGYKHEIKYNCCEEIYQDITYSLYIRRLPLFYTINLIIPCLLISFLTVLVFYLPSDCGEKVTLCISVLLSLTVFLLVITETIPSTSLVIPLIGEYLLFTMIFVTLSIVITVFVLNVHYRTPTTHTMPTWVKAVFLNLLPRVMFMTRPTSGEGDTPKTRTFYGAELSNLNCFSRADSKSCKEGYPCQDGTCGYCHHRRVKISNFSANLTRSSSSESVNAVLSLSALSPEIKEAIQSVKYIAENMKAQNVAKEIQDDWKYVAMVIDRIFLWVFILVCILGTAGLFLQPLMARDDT
compound,measurement,value
C=CC1=C[C@@H]2[C@@H]3O[C@]4(CC[C@H](O4)[C@@H](C)C[C@@H](O)C3=O)C[C@H](O)C3=NCC[C@@]32CC1 [Portimine-A],"inhibition of the acetylcholine-evoked current, concentration range",micromolar range
